Tested on: ApoE knockout mice
Assay: Four blood lipids in serum of ApoE knockout mice (Example 1)
Format: in vivo
Conditions: for HDL-C / LDL-C / TC / TG: serum
Source text: Methods: SPF grade C57BL/6 ApoE −/−model mice were provided by Guangdong Medical Experimental Animal Center, laboratory animal production license No. SOCK (Guangdong) 2013-0002. Laboratory animal quality certificate number: 44007200048196). Mice were half male and half female, aged 8 to 12 weeks, and 72 animals in total. After four weeks of housing in a SPF-level animal facility, animals with less body weights were disposed. A total of 64 animals were randomly divided into 8 groups, 8 in each group, fed with 10% high-fat food, and received with different treatments. Animals were observed and administered with the medicines by gavage once daily. The body weights were measured once a week and continued for 58 days. […] The test sample was dissolved in dimethyl sulfoxide solution and prepared with 30% PEG300.
At the end of the experiment, animals were anesthetized with pentobarbital sodium. Blood was collected from the orbital venous plexus, and centrifuged at 3000 r/min at a low temperature for 10 min to separate the serum. The levels of total cholesterol TC, triglyceride TG, high-density lipoprotein HDL-C, and low-density lipoprotein LDL-C were measured, and the remaining serum was stored in a refrigerator at −80° C.
Statistical analysis: Data were expressed as the mean plus or minus the standard deviation (x± s), and analyzed by SPSS21.0 statistical software. […] The level of test is α=0.05.

[1] = half male and female, 2 mg/kg body weight
[2] = half male and female, 5 mg/kg body weight
[3] = half male and female, 10 mg/kg body weight
[4] = ♀, 2 mg/kg gavage QD, 58 days, 2 mg/kg
[5] = ♀, 2 mg/kg gavage QD, 58 days, listed as Nib1, 2 mg/kg
[6] = ♀, 10 mg/kg gavage QD, 58 days, 10 mg/kg
[7] = ♀, 10 mg/kg gavage QD, 58 days, listed as Nib1, 10 mg/kg

## O=c1[nH]c2ccccc2n1C1CCN(CCCC(c2ccc(F)cc2)c2ccc(F)cc2)CC1 [Sample A]
Example 1, overall
  regulation on blood lipid levels (overall): have the effect of improving blood lipids
[1]
  HDL-C: 1.80 ± 0.62 mmol/L
  LDL-C: 6.23 ± 2.86 mmol/L
  TC: 19.86 ± 6.92 mmol/L
  TG: 1.18 ± 0.70 mmol/L
[2]
  LDL-C: 6.09 ± 2.12 mmol/L
  TC: 20.87 ± 6.13 mmol/L
  TG: 0.82 ± 0.17 mmol/L
Half male and female, 5 mg/kg body weight, 5 mg/kg
  HDL-C: 1.63 ± 0.28 mmol/L
Half male and female, 5 mg/kg body weight, listed as sample A, 5 mg/kg
  HDL-C: lower
[3]
  LDL-C: 5.82 ± 2.13 mmol/L
  TC: 19.85 ± 6.26 mmol/L
  TG: 0.89 ± 0.20 mmol/L
Half male and female, 10 mg/kg body weight, 10 mg/kg
  HDL-C: 1.62 ± 0.35 mmol/L
Half male and female, 10 mg/kg body weight, listed as sample A, 10 mg/kg
  HDL-C: lower
♀, 2 mg/kg gavage QD, 58 days
  TG: 0.86 ± 0.16 mmol/L
[4]
  LDL-C: 3.86 ± 0.95 mmol/L
  TC: 13.88 ± 1.77 mmol/L
[5]
  LDL-C: decreased
  TC: decreased
♀, 5 mg/kg gavage QD, 58 days
  LDL-C: 4.30 ± 0.39 mmol/L
  TC: 15.41 ± 1.32 mmol/L
  TG: 0.70 ± 0.11 mmol/L
♀, 10 mg/kg gavage QD, 58 days
  TG: 0.76 ± 0.07 mmol/L
[6]
  LDL-C: 3.86 ± 0.38 mmol/L
  TC: 14.07 ± 0.64 mmol/L
[7]
  LDL-C: decreased
  TC: decreased
♂, 2 mg/kg gavage QD, 58 days
  HDL-C: 2.26 ± 0.54 mmol/L
  LDL-C: 8.60 ± 1.79 mmol/L
  TC: 25.84 ± 3.63 mmol/L
  TG: 1.51 ± 0.92 mmol/L
♂, 5 mg/kg gavage QD, 58 days
  HDL-C: 1.83 ± 0.24 mmol/L
  LDL-C: 7.87 ± 1.38 mmol/L
  TC: 26.34 ± 2.50 mmol/L
  TG: 0.94 ± 0.15 mmol/L
♂, 10 mg/kg gavage QD, 58 days
  HDL-C: 1.92 ± 0.18 mmol/L
  LDL-C: 7.78 ± 0.40 mmol/L
  TC: 25.64 ± 1.32 mmol/L
  TG: 1.02 ± 0.22 mmol/L

From US20220202801A1, “USE OF COMPOUND IN PREPARATION OF DRUG FOR TREATING ATHEROSCLEROSIS” (GenEros Biopharma Ltd., priority 2019, published 2022)
